{"source": "patent US11642339B2", "about": "(THERAVANCE BIOPHARMA R&D IP, LLC, priority 2017, dated 2023)", "origin": "cited, not measured here", "key": {"[1]": {"system": "patients with functional dyspepsia", "conditions": "Japan, placebo 35%; cited from earlier work"}, "[2]": {"system": "patients on daily therapy", "conditions": "long-term use; cited from earlier work"}, "[3]": {"system": "patients with functional dyspepsia", "conditions": "after 4 weeks of treatment; placebo 12.7%; cited from earlier work"}}}
{"compound": "COc1cc(O)c(C(=O)Nc2nc(C(=O)NCCN(C(C)C)C(C)C)cs2)cc1OC", "note": "[Acotiamide]", "values": [{"measurement": "patients with symptom improvement", "setting": "[1]", "result": 52, "unit": "%"}]}
{"compound": "CCN(CC)CCNC(=O)c1cc(Cl)c(N)cc1OC", "note": "[metoclopramide]", "values": [{"measurement": "patients with adverse CNS effects", "setting": "[2]", "result": "up to 30%"}]}
{"compound": "O=C1[C@@H]2[C@H]3CC[C@H](C3)[C@@H]2C(=O)N1CCCCN1CCN(c2ncccn2)CC1", "note": "[tandospirone]", "values": [{"measurement": "response rate", "setting": "[3]", "result": 31.5, "unit": "%"}]}
